Data: patent US20140011799A1 (Bristol-Myers Squibb Company, priority 2012, published 2014)
Like-named read-outs stand apart in the source and are kept apart here.

Legend:
hepatic lipase (HL) = molecular target: T1, hepatic lipase (HL) (Homo sapiens, UniProt P11150); test: Hepatic lipase (HL) enzymatic assay, fluorescent substrate A10070 in DMPG vesicles; type: biochemical; details: compound preincubated 30 min at 37° C
T1 construct: made in house; host or cells: COS cells (conditioned medium, partially purified)
T1 sequence (P11150 23-499): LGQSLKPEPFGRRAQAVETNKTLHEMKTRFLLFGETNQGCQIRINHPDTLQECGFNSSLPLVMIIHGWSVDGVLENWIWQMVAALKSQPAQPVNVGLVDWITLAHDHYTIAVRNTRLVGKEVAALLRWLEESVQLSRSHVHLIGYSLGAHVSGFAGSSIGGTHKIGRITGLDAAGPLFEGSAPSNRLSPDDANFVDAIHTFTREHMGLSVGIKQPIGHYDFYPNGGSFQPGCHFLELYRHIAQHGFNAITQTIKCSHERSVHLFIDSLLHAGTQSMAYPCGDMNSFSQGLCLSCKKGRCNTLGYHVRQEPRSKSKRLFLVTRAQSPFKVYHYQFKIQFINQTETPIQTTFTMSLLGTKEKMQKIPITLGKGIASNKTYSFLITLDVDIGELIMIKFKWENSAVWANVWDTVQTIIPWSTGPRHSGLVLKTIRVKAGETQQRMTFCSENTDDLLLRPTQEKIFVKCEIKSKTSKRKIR
Procedure, shortened: (§1)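 Substrate A10070 sits in sonicated DMPG vesicles at 0.11 mole fraction. Lipase and compound preincubated 30 min, 37° C, in HEPES pH 8.0 buffer with CaCl2.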

Endothelial lipase (EL) = molecular target: T2, Endothelial lipase (EL) (Homo sapiens, UniProt Q9Y5X9); test: Endothelial lipase (EL) enzymatic assay, fluorescent substrate A10070 in DMPG vesicles; type: biochemical; details: compound preincubated 30 min at 37° C
T2 construct: HT-1080 cells that were transformed using RAGE technology (Athersys) to overexpress endogenous EL; endogenous in cells; conditioned medium used
T2 sequence (Q9Y5X9 21-500): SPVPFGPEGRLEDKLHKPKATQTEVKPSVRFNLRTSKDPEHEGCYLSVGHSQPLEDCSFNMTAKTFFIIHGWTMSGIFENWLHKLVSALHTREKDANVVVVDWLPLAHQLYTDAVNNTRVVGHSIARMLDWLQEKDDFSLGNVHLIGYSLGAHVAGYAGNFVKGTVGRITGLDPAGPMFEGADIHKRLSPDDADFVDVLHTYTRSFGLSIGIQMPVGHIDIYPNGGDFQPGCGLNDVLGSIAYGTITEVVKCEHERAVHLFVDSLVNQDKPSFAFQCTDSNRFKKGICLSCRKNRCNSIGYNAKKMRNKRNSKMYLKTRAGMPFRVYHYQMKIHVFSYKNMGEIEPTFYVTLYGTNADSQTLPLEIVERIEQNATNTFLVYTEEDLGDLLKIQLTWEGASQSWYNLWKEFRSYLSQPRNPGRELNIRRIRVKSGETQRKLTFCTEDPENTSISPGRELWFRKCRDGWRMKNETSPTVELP
Procedure, shortened: as §1

[1] = HL partially purified from conditioned media of COS cells, read-out: HL IC50
[2] = EL from conditioned media of HT-1080 cells, read-out: EL IC50

Structure (SMILES) | IC50 (hepatic lipase (HL); [1]) | IC50 (Endothelial lipase (EL); [2]) | IC50 (hepatic lipase (HL); HL IC50, HL partially purified from conditioned media of COS cells) | IC50 (Endothelial lipase (EL); EL IC50, EL from conditioned media of HT-1080 cells)
O=C(Cc1nnc(C(c2nc3ccc(-c4ccc(C(=O)N5CCOCC5)cc4)cc3s2)S(=O)(=O)Cc2ccccc2)o1)NC1CCCC1 (stereo not shown) [Example 180, 2-(5-((benzylsulfonyl)(6-(4-(4-morpholinylcarbonyl)phenyl)-1,3-benzothiazol-2-yl)methyl)-1,3,4-oxadiazol-2-yl)-N-cyclopentylacetamide] | 44 nM | < 10 nM |  | 
CS(=O)(=O)C(c1nnc(C[C@@H]2NS(=O)(=O)N(C3CC3)C2=O)o1)c1nc2ccc(-c3ccccc3)cc2s1 (stereo partly shown) [Example 181] | 56 nM | 130 nM |  | 
CS(=O)(=O)C(c1nnc(CC2SC(=O)NC2=O)o1)c1nc2ccc(-c3cnc(O)nc3)cc2s1 (stereo not shown) [Example 182, 5-((5-((Methylsulfonyl)(6-(2-oxo-1,2-dihydro-5-pyrimidinyl)-1,3-benzothiazol-2-yl)methyl)-1,3,4-oxadiazol-2-yl)methyl)-1,3-thiazolidine-2,4-dione] | 84 nM | < 10 nM |  | 
NCCS(=O)(=O)C(c1nnc(CNS(N)(=O)=O)o1)c1nc2ccc(-c3ccc(C(=O)N4CCOCC4)cc3)cc2s1 (stereo not shown) [Example 183, N-{[5-([(2-Aminoethyl)sulfonyl]{6-[4-(4-morpholinylcarbonyl)phenyl]-1,3-benzothiazol-2-yl}methyl)-1,3,4-oxadiazol-2-yl]methyl}sulfuric diamide] | 178 nM | 14 nM |  | 
NCCS(=O)(=O)C(c1nnc(CC2SC(=O)NC2=O)o1)c1nc2ccc(-c3ccccc3)cc2s1 (stereo not shown) [Example 184, 5-((5-(((2-aminoethyl)sulfonyl)(6-phenyl-1,3-benzothiazol-2-yl)methyl)-1,3,4-oxadiazol-2-yl)methyl)-1,3-thiazolidine-2,4-dione] | < 10 nM | < 10 nM |  | 
NCCS(=O)(=O)C(c1nnc(CC2SC(=O)NC2=O)o1)c1nc2ccc(-c3ccc(C(=O)N4CCOCC4)cc3)cc2s1 (stereo not shown) [Example 185, 5-{[5-([(2-aminoethyl)sulfonyl]{6-[4-(4-morpholinylcarbonyl)phenyl]-1,3-benzothiazol-2-yl}methyl)-1,3,4-oxadiazol-2-yl]methyl}-1,3-thiazolidine-2,4-dione] | 70 nM | < 10 nM |  | 
NCCS(=O)(=O)C(c1nnc(CC2SC(=O)NC2=O)o1)c1nc2cc(F)c(-c3ccccc3)cc2s1 (stereo not shown) [Example 186, 5-((5-(((2-aminoethyl)sulfonyl)(5-fluoro-6-phenyl-1,3-benzothiazol-2-yl)methyl)-1,3,4-oxadiazol-2-yl)methyl)-1,3-thiazolidine-2,4-dione] | 49 nM | < 10 nM |  | 
NCCS(=O)(=O)C(c1nnc(CNS(N)(=O)=O)o1)c1nc2ccc(-c3ccccc3)cc2s1 (stereo not shown) [Example 187, N-[(5-{[(2-aminoethyl)sulfonyl](6-phenyl-1,3-benzothiazol-2-yl)methyl}-1,3,4-oxadiazol-2-yl)methyl] sulfuric diamide] | 12 nM | < 10 nM |  | 
NS(=O)(=O)NCc1nnc(C(c2nc3ccc(C(=O)N4CCOCC4)cc3s2)S(=O)(=O)Cc2ccccc2)o1 (stereo not shown) [Example 189, N-((5-((Benzylsulfonyl)(6-(4-morpholinylcarbonyl)-1,3-benzothiazol-2-yl)methyl)-1,3,4-oxadiazol-2-yl)methyl)sulfamide] | 2370 nM | 13 nM |  | 
CS(=O)(=O)C(c1nnc(CC2SC(=O)NC2=O)o1)c1nc2ccc(C#N)cc2s1 (stereo not shown) [Example 190, 2-((5-((2,4-Dioxo-1,3-thiazolidin-5-yl)methyl)-1,3,4-oxadiazol-2-yl)(methylsulfonyl)methyl)-1,3-benzothiazole-6-carbonitrile] | 418 nM | < 10 nM |  | 
NS(=O)(=O)NCc1nnc(C(c2nc3ccc(-c4cccc(C(=O)O)c4)cc3s2)S(=O)(=O)CCC(F)(F)F)o1 (stereo not shown) [Example 191, 3-(2-((5-((Sulfamoylamino)methyl)-1,3,4-oxadiazol-2-yl)((3,3,3-trifluoropropyl)sulfonyl)methyl)-1,3-benzothiazol-6-yl)benzoic acid] | 2670 nM | 15 nM |  | 
CC1(O)CN(C(=O)c2cccc(-c3ccc4nc(C(c5nnc(CNS(N)(=O)=O)o5)S(=O)(=O)CCC(F)(F)F)sc4c3)c2)C1 (stereo not shown) [Example 192, N-((5-((6-(3-((3-Hydroxy-3-methyl-1-azetidinyl)carbonyl)phenyl)-1,3-benzothiazol-2-yl)((3,3,3-trifluoropropyl)sulfonyl)methyl)-1,3,4-oxadiazol-2-yl)methyl)sulfamide] | 81 nM | < 10 nM |  | 
CN1CCN(C(=O)c2cccc(-c3ccc4nc(C(c5nnc(CNS(N)(=O)=O)o5)S(C)(=O)=O)sc4c3)c2)CC1 (stereo not shown) [Example 193, N-((5-((6-(3-((4-methyl-1-piperazinyl)carbonyl)phenyl)-1,3-benzothiazol-2-yl)(methylsulfonyl)methyl)-1,3,4-oxadiazol-2-yl)methyl)sulfamide] | 105 nM | < 10 nM |  | 
NS(=O)(=O)NCc1nnc(C(c2nc3ccc(-c4cccc(C(=O)N5CCC(=O)CC5)c4)cc3s2)S(=O)(=O)CCC(F)(F)F)o1 (stereo not shown) [Example 194, N-((5-((6-(3-((4-oxo-1-piperidinyl)carbonyl)phenyl)-1,3-benzothiazol-2-yl)((3,3,3-trifluoropropyl)sulfonyl)methyl)-1,3,4-oxadiazol-2-yl)methyl) sulfamide] |  |  | 171 nM | < 10 nM
NS(=O)(=O)NCc1nnc(C(c2nc3ccc(-c4cccc(C(=O)NCC(F)(F)F)c4)cc3s2)S(=O)(=O)CCC(F)(F)F)o1 (stereo not shown) [Example 195, 3-(2-((5-((sulfamoylamino)methyl)-1,3,4-oxadiazol-2-yl)((3,3,3-trifluoropropyl)sulfonyl)methyl)-1,3-benzothiazol-6-yl)-N-(2,2,2-trifluoroethyl)benzamide] | 336 nM | < 10 nM |  | 
NS(=O)(=O)NCc1nnc(C(c2nc3ccc(-c4cccc(C(=O)NCCO)c4)cc3s2)S(=O)(=O)CCC(F)(F)F)o1 (stereo not shown) [Example 196, N-(2-hydroxyethyl)-3-(2-((5-((sulfamoylamino)methyl)-1,3,4-oxadiazol-2-yl)((3,3,3-trifluoropropyl)sulfonyl)methyl)-1,3-benzothiazol-6-yl)benzamide] | 209 nM | < 10 nM |  | 
CN1CCN(C(=O)c2cccc(-c3ccc4nc(C(c5nnc(CNS(N)(=O)=O)o5)S(=O)(=O)CC5CC5)sc4c3)c2)CC1 (stereo not shown) [Example 197, N-((5-(((cyclopropylmethyl)sulfonyl)(6-(3-((4-methyl-1-piperazinyl)carbonyl)phenyl)-1,3-benzothiazol-2-yl)methyl)-1,3,4-oxadiazol-2-yl)methyl)sulfamide] | 2570 nM | < 10 nM |  | 
CN1CCN(C(=O)c2cccc(-c3ccc4nc(C(c5nnc(CNS(N)(=O)=O)o5)S(=O)(=O)Cc5ccccc5)sc4c3)c2)CC1 (stereo not shown) [Example 198, N-((5-((benzylsulfonyl)(6-(3-((4-methyl-1-piperazinyl)carbonyl)phenyl)-1,3-benzothiazol-2-yl)methyl)-1,3,4-oxadiazol-2-yl)methyl)sulfamide] | 9180 nM | < 10 nM |  | 
COCCNC(=O)c1cccc(-c2ccc3nc(C(c4nnc(CNS(N)(=O)=O)o4)S(=O)(=O)CCC(F)(F)F)sc3c2)c1 (stereo not shown) [Example 199, N-(2-methoxyethyl)-3-(2-((5-((sulfamoylamino)methyl)-1,3,4-oxadiazol-2-yl)((3,3,3-trifluoropropyl)sulfonyl)methyl)-1,3-benzothiazol-6-yl)benzamide] | 1020 nM | < 10 nM |  | 
COCCS(=O)(=O)C(c1nnc(CNS(N)(=O)=O)o1)c1nc2ccc(-c3cccc(C(=O)N4CCN(C)CC4)c3)cc2s1 (stereo not shown) [Example 200, N-((5-(((2-methoxyethyl)sulfonyl)(6-(3-((4-methyl-1-piperazinyl)carbonyl)phenyl)-1,3-benzothiazol-2-yl)methyl)-1,3,4-oxadiazol-2-yl)methyl)sulfamide] | 201 nM | < 10 nM |  | 
